From patent publication US20220281821A1, “INDAZOLE COMPOUNDS AND THEIR PHARMACEUTICAL COMPOSITIONS” (Jinan University, priority 2019, published 2022)
Like-named read-outs stand apart in the source and are kept apart here.

Legend:
BaF3-ETV6-NTRK3 = biological target: T1, BaF3-ETV6-NTRK3 (Homo sapiens, UniProt Q16288); assay: Cell proliferation inhibition (CCK-8), BaF3-ETV6-NTRK3 stable strain; type: cell-based, mouse; details: BaF3-ETV6-NTRK3, 72 hours
T1 construct: fused on or other part: P41212 (Transcription factor ETV6)
In short: (§1)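 Ba/F3 cells stably electroporated with ETV6-NTRK3, CD74-NTRK1 or ETV6-NTRK2, selected with G418 and grown without IL3, then cloned by limiting dilution.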

Ba/F3-TRK stable strains = assay: Cell proliferation of Ba/F3-TRK stable strains, summary statements; type: cell-based, mouse; details: summary statement
Experimental: The brief steps of stable strain construction are as follows: construct a pCDNA3.1(+) plasmid vector carrying genes such as CD74-NTRK1, ETV6-NTRK2 and ETV6-NTRK3; the plasmid was electroporated into Ba/F3 cells using the Amaxa® Cell Line Nucleofector® Kit V; 48 hours after electroporated, G418 with a final concentration of 1000 μg/ml was added for screening for two weeks, and then IL3 was removed, and continued screening to obtain polyclonal stable strains; then single clones were selected by a limiting dilution method. The stable strains were then identified using positive drugs, WB and gene sequencing; and the monoclonal clones that were identified as completely correct may be used for the study of cell proliferation inhibitory activity of inhibitors.
Cell proliferation inhibition activity study: the cells in the logarithmic growth phase were seeded into 96-well plates at 8000-12000 cells/well, and inhibitors at different concentrations (0-10 μM) were added the next day, and incubation was continued for 72 hours; then 10 μL of CCK-8 reagent was added to each well, and the incubation was continued for 1-3 hours; and then use a super microplate reader to measure their absorbance values at 450 nm and 650 nm. The half-inhibition concentration (IC50) was calculated using GraphPad Prism 8.0.0.

[1] = Pharmacokinetic evaluation in SD rats; type: in vivo
Experimental: Pharmacokinetics and oral bioavailability were tested in SD rats. According to the solubility of the drug, a single dose was administered orally, intravenously or by intraperitoneal injection. Animal blood samples were collected at different time points (0, 0.5, 1, 2, 4, 6, 8, and 24 hours), anticoagulated with heparin, and centrifuged to take the supernatant. Blood samples were analyzed by HPLC-MS. DAS2.1 was used for data analysis to detect half-life (T1/2), maximum blood concentration (Cmax), time to peak (Tmax), area under the drug-time curve (AUC), and bioavailability (BA) and other pharmacokinetic data.

TRKB = biological target: T2, TRKB (Homo sapiens, UniProt Q16620); assay: Z′-LYTE kinase activity assay, TRKB; type: biochemical; details: ATP 25 uM
T2 construct: purchased life technologies PV3616
In short: (§2)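 IC50 values were fitted to inhibition calculated from the emission-ratio-based phosphorylation ratio relative to negative control, across a compound concentration gradient.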

BaF3-CD74-NTRK1 = biological target: T3, BaF3-CD74-NTRK1 (Homo sapiens, UniProt P04629); assay: Cell proliferation inhibition (CCK-8), BaF3-CD74-NTRK1 stable strain; type: cell-based, mouse; details: BaF3-CD74-NTRK1, 72 hours
T3 construct: fused on or other part: P04233 (HLA class II histocompatibility antigen gamma chain)
In short: as §1

TRKs (TRK1, TRK2, TRK3) = assay: Kinase activity on TRKs, summary statements; type: biochemical; details: summary statement
Text: Kinase activity assay: Z′-LYTE™ technology (detection by fluorescence, enzyme-conjugated format, based on the difference in sensitivity of phosphorylated and non-phosphorylated peptides to proteolytic cleavage) was applied, and using the principle of fluorescence resonance energy transfer (FRET), a Z′-LYTE™ FRET peptide substrate (Z′-LYTE™ Tyrosine 1 Peptide Substrate, Invitrogen, PV3190), and a secondary reaction were used to detect the inhibitory activity of the compounds on TRKs (TRK1, TRK2, TRK3) (life technologies, PV3144, PV3616, PV3617).
Enzymatic reaction: In a 384-well plate, 5 μL of an enzyme-substrate system (50 mM HEPES pH 7.5, 0.01% BRIJ-35, 10 mM MgCl2, 1 mM EGTA, 2 μM Tyr 01 Peptide Substrate) was added and 5 nL of compound (concentration gradient) was transferred thereto by using the echo520 ultramicro liquid pipetting system. After shaking for 10-20 min at room temperature, 200 nL, 12.5 nL and 25 nL of ATP (final concentrations are 400 uM, 25 uM and 50 uM, respectively) were transferred by using the echo520 ultramicro liquid pipetting system. After shaking and mixing, centrifuging was performed. A reaction was carried out at 30° C. in the dark for 1.5 hours.
Assay reaction: 2.54 of Development Solution (1:128 dilution) was added in each well, and incubated at 37° C. in the dark for 1 hour, and then 5 μL of Stop Reagent was added.
Plate reading: fluorescence signals were detected using a Perkin Elmer EnVision Multimode Plate Reader (excitation at 400 nm, and emission at 460 nm, and 535 nm).
Calculation: the inhibition rate of each well was calculated by the fully active well and control signal wells. The data were analyzed as follows:
Phosphorylation ratio=1−{(emission ratio×F100%−C100%)/[C0%−C100%+emission ratio×(F100%−F0%)]}×100;
Inhibition rate=100×(1−compound phosphorylation ratio/negative control phosphorylation ratio).
IC50 values were calculated by using GraphPad Prism 5.0 software.

[2] = Rat hepatocyte stability experiment; type: in vitro ADME; details: for Residual percentage (%) 0 min / Residual percentage (%) 5 min / Residual percentage (%) 15 min / Residual percentage (%) 30 min / Residual percentage (%) 60 min / Residual percentage (%) 120 min: average value; for half-life at 1 μM: rat, rat hepatocytes (suspension)
Experimental: In William medium E, dilute the 37° C. rat hepatocyte suspension to an appropriate density (viable cell density=2×10^6 cells/mL). In addition, a 2× quantification solution (the concentration of the test compound was 2 μM) was additionally prepared in William's medium E. The hepatocyte solution and 2× quantification solution were preheated in a water bath of 37° C. 40 µL of the preheated hepatocyte solution (2×10^6 cells/mL) was added into the designated wells for 5, 15, 30, 60, and 120 min, and add 40 µL of the preheated 2× quantification solution and start timing. An assay plate was placed in a 37° C., 5% CO2 incubator with shaking at 110 rpm. At 5, 15, 30, 60, and 120 minutes, 240 μL of ACN containing IS was added to each well. The plate was then sealed and stored in a −35° C. freezer. After collecting at all time points, the plate was shaken for 2 minutes and then centrifuging was performed for 15 minutes at 6000 rmp. 100 μL of supernatant from each well was transferred to a 96-well sample plate containing 100 μL of water for LC/MS analysis, determination of compound concentrations, calculation of rate constants and half-lives.

TRKC = biological target: T4, TRKC (Homo sapiens, UniProt Q16288); assay: Z′-LYTE kinase activity assay, TRKC; type: biochemical; details: ATP 50 uM
T4 construct: purchased life technologies PV3617
In short: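 Recombinant TRK kinase tested in a Z′-LYTE FRET assay with 2 μM Tyr 01 peptide substrate in 50 mM HEPES pH 7.5, 10 mM MgCl2, 1 mM EGTA, 0.01% BRIJ-35. IC50 obtained by curve fitting.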

BaF3-ETV6-NTRK2 = biological target: T5, BaF3-ETV6-NTRK2 (Homo sapiens, UniProt Q16620); assay: Cell proliferation inhibition (CCK-8), BaF3-ETV6-NTRK2 stable strain; type: cell-based, mouse; details: BaF3-ETV6-NTRK2, 72 hours
T5 construct: fused on or other part: P41212 (Transcription factor ETV6)
In short: as §1

TRKA = biological target: T6, TRKA (Homo sapiens, UniProt P04629); assay: Z′-LYTE kinase activity assay, TRKA; type: biochemical; details: ATP 400 uM
T6 construct: purchased life technologies PV3144
In short: as §2

T3 sequence (P04629 510-796 limits assumed): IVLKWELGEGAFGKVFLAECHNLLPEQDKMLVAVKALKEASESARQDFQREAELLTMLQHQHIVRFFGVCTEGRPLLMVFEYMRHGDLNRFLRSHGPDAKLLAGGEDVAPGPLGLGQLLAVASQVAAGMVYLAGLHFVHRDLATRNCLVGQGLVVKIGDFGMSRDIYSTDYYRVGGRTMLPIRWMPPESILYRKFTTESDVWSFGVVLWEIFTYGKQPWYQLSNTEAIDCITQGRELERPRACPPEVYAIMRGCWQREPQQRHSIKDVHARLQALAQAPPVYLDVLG
T1 sequence (Q16288 whole entry, the tested form may be a part): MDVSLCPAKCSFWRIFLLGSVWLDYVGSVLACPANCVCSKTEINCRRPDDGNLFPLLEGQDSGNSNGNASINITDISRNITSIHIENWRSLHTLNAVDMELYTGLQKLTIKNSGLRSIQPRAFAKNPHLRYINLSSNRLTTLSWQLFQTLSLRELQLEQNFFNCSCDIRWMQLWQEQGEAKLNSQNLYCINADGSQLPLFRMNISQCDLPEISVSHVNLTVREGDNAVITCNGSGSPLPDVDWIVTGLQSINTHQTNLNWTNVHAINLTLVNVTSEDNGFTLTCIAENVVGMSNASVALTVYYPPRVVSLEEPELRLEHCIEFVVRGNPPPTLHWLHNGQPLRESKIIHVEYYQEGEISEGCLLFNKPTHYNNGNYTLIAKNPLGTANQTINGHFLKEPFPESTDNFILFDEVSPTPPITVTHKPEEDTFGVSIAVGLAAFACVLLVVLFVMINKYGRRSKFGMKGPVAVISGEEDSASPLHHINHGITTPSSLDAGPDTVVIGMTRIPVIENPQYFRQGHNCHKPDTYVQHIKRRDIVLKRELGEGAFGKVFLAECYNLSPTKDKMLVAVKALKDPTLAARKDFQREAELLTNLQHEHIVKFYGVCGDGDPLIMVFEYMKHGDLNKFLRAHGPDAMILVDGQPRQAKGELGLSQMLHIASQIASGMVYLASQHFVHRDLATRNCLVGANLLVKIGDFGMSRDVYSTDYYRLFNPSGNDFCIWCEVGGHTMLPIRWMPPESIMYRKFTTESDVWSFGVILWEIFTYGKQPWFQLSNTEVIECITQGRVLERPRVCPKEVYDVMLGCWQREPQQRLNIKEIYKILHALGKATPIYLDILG
T5 sequence (Q16620 538-822 limits assumed): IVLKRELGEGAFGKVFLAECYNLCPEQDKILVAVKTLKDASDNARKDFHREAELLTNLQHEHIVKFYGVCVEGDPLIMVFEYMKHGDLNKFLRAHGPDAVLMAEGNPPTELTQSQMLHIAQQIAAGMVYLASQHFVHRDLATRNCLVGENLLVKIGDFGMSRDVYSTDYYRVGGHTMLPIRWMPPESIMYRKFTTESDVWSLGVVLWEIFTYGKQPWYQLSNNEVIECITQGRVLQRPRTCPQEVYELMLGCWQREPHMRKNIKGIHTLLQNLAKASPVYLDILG
T4 sequence (Q16288 32-839): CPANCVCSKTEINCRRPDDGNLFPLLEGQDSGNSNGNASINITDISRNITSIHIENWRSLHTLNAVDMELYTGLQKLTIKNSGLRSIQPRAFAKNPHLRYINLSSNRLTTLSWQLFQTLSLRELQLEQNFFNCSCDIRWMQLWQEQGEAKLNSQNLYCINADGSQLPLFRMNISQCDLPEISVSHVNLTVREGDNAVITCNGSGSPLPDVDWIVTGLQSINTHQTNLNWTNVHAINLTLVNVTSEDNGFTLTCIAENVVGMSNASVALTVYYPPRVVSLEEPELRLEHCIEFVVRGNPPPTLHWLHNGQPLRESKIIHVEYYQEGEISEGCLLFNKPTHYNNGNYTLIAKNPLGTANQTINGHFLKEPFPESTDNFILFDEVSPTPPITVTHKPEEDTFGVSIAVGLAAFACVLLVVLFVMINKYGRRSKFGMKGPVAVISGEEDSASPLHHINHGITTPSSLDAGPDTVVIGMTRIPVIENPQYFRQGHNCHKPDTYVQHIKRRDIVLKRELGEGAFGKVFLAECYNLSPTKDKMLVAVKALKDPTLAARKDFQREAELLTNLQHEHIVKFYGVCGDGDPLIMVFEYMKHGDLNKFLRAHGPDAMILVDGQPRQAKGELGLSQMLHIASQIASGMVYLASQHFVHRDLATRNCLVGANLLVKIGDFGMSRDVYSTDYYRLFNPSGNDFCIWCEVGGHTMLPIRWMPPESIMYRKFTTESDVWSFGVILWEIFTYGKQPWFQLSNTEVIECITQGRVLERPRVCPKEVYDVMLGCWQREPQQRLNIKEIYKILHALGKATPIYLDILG
T2 sequence (Q16620 32-822): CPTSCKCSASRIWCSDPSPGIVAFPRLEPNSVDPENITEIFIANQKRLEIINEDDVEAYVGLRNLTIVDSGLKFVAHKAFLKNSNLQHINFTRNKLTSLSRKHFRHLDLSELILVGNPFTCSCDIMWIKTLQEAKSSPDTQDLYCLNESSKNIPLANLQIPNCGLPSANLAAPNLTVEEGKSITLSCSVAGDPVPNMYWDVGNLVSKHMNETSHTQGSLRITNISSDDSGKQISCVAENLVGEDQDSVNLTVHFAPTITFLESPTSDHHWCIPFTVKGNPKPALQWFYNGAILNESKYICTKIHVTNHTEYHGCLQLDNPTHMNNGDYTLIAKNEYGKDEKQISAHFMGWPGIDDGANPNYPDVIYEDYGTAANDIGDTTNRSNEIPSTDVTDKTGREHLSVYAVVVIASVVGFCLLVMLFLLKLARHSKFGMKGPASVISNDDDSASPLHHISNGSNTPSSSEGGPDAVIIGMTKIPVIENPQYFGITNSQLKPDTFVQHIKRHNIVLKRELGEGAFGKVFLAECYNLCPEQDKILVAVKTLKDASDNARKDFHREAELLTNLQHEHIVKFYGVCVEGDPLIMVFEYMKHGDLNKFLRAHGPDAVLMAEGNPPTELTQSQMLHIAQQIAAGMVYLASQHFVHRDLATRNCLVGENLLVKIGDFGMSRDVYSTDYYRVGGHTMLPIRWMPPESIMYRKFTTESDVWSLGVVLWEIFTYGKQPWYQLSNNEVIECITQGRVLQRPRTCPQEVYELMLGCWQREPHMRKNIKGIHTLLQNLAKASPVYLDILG
T6 sequence (P04629 440-796 limits assumed): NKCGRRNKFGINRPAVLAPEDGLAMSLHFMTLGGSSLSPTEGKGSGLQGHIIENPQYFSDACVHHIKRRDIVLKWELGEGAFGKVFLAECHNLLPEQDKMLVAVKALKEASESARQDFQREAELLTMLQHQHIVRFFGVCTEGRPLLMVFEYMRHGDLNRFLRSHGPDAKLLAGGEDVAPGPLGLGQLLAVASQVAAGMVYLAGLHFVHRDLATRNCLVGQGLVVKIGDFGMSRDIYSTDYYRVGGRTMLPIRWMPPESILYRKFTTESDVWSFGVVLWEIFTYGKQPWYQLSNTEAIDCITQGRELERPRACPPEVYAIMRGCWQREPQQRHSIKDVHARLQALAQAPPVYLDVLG

Row | SMILES | IC50 (BaF3-ETV6-NTRK3) [nM] | inhibitory activity against cell proliferation of the Ba/F3-TRK stable strains (in words) (Ba/F3-TRK stable strains) | IC50 (BaF3-CD74-NTRK1) [nM] | inhibitory activity against TRKs kinase (in words) (TRKs (TRK1, TRK2, TRK3)) | Residual percentage (%) 0 min ([2]; rat hepatocytes) [%] | Residual percentage (%) 5 min ([2]; rat hepatocytes) [%] | Residual percentage (%) 15 min ([2]; rat hepatocytes) [%] | Residual percentage (%) 30 min ([2]; rat hepatocytes) [%] | Residual percentage (%) 60 min ([2]; rat hepatocytes) [%] | Residual percentage (%) 120 min ([2]; rat hepatocytes) [%] | half-life at 1 μM [2] [h] | IC50 (BaF3-ETV6-NTRK2) [nM] | further results
1 | O=S(=O)(Nc1ccc2[nH]nc(/C=C/c3ccccn3)c2c1)c1cc(F)cc(F)c1 [DYX-165, (E)-3,5-difluoro-N-(3-(2-(pyridin-2-yl)vinyl)-1H-indazol-5-yl)benzenesulfonamide] | 43.7 | strong inhibitory activity | 126 | strong inhibitory activity | 100.00 | 92.73 | 84.16 | 73.15 | 59.81 | 58.02 | 2.57 | 48.9 | Half-life ([1]; Sprague-Dawley, rat, plasma, oral administration, 25 mg/kg, read-out: Half-life (converted)): 1.54 h; Area under the drug-time curve (0-t) ([1]; oral administration, 25 mg/kg): 1035.70 µM·h; Area under the drug-time curve (0-∞) ([1]; oral administration, 25 mg/kg): 1035.78 µM·h; Maximum blood concentration ([1]; oral administration, 25 mg/kg): 91.56 µM; Time to Peak ([1]; oral administration, 25 mg/kg): 4.00 h; oral absorption properties (in words) ([1]; oral, comparison with DYX244-1): better oral absorption properties; IC50 (TRKB): 3.2 nM; metabolic stability (in words) ([2]; rat hepatocytes, comparison with DYX244-1 and DYX318): better metabolic stability; IC50 (TRKC): 2.4 nM; IC50 (TRKA): 1.3 nM
2 | C[C@@H](Nc1ccc2[nH]nc(/C=C/c3ccccn3)c2c1)c1cc(F)cc(F)c1 [DYX-244-1, (R,E)-N-(1-(3,5-difluorophenyl)ethyl)-3-(2-(pyridin-2-yl)vinyl)-1H-indazol-5-amine] |  |  |  | strong inhibitory activity | 100.00 | 71.83 | 48.63 | 14.84 | 8.20 | 5.40 | 0.185 |  | Area under the drug-time curve (0-t) ([1]; intravenous injection, 2 mg/kg): 3.68 µM·h; Area under the drug-time curve (0-∞) ([1]; intravenous injection, 2 mg/kg): 3.69 µM·h; Half-life ([1]; intravenous injection, 2 mg/kg): 1.39 h; Maximum blood concentration ([1]; intravenous injection, 2 mg/kg): 6.77 µM; Removal rate ([1]; intravenous injection, 2 mg/kg): 24 mL/min/kg; Time to Peak ([1]; intravenous injection, 2 mg/kg): 0.08 h; Bioavailability (%) ([1]; oral 10 mg/kg vs intravenous 2 mg/kg): 8.79%; Area under the drug-time curve (0-t) ([1]; oral administration, 10 mg/kg): 1.62 µM·h; Area under the drug-time curve (0-∞) ([1]; oral administration, 10 mg/kg): 1.64 µM·h; Half-life ([1]; oral administration, 10 mg/kg): 1.13 h; Maximum blood concentration ([1]; oral administration, 10 mg/kg): 0.36 µM; Time to Peak ([1]; oral administration, 10 mg/kg): 2.00 h
3 | C[C@@H](Nc1cnc2[nH]nc(/C=C/c3ccccn3)c2c1)c1cc(F)cc(F)c1 [DYX-318, (R,E)-N-(1-(3,5-difluorophenyl)ethyl)-3-(2-(pyridin-2-yl)vinyl)-1H-pyrazolo[3,4-b]pyridin-5-amine] | 9.1 | strong inhibitory activity | 9.6 | strong inhibitory activity | 100.00 | 27.83 | 12.24 | 1.36 | 0.27 | 0.20 | 0.0452 | 33.6 | 
